{"source": "patent US20260014184A1", "about": "“ADENOSINE DERIVATIVES FOR USE IN THE TREATMENT OF NEURODEGENERATIVE DISORDERS AND CANCER” (UNIVERSITY COLLEGE CARDIFF CONSULTANTS LIMITED, priority 2022, published 2026)", "key": {"Ub Ser65 phosphorylation [1]": {"test_system": "Ub Ser65 phosphorylation", "assay": "Phospho-Ub (Ub Ser65) immunoblotting in parkin- or YFP-parkin-transfected HeLa cells", "assay_type": "cell-based", "details": "immunoblot; for ubiquitin phosphorylation, niclosamide or CCCP only (controls): YFP-parkin HeLa cells, 10 μM, 1 h; for phosphorylation of Ub at Ser65, niclosamide or CCCP treatment alone (controls): 10 μM CCCP 3 h", "description": "(§1) Both HeLa and parkin-overexpressed HeLa cells were maintained in DMEM high glucose (Gibco), 10% FBS (Sigma-Aldrich) at 37° C. with 5% CO2. For experiments, cells were counted and seeded into a range of culture plates, depending on the experiment, cell counting was done using the Cellometer Auto T4 with TrypanBlue (Gibco). […] Alternatively, HeLa cells were seeded in well plates and then transfected with […] of parkin cDNA using the PEI method once the plated cells reached 60% confluency. After 6 hours, the media was changed. Sub-culturing was done when the cells reached ˜90% confluency.\n(§2) Cell culture with 70-80% confluency was lysed as follows: cells were washed with Phosphate Buffer Saline (PBS) (Sigma). 150 μl of lysis buffer was used on each well containing either: • 50 mM Tris-HCl pH 7.5, 1 mM EDTA, 1 mM EGTA, 0.27 M sucrose, 1 mM Na3VO4, 50 mM NaF, 5 mM Na pyrophosphate and fresh 1 mM benzamidine, 1% NP-40 and […]; or • 50 mM Tris-HCl pH 7.5, 1 mM EDTA, 1 mM EGTA, 10 mM Na β-glycerophosphate, 0.27 M sucrose, 1 mM Na3VO4, 50 mM NaF, 10 mM Na pyrophosphate with fresh 1 mM benzamidine, 1% Triton X-100, complete EDTA-free Protease Inhibitor, Phosphatase inhibitor cocktail 3 and 100 μM of 2-chloroacetamide.\n(§3) The cells were scrapped and transferred to the microtube and eventually spun down at 12,000 rpm for 15 minutes at 4° C. Finally, the supernatant was transferred to the new microtubes and stored at −20° C. Protein concentration was measured using Bradford Assay. Serial concentrations 0.125; 0.25; 0.5 and 1 mg/ml of Bovine Serum Albumin (BSA) (Sigma Aldrich) were used as a standard. Samples were boiled at 90° C. for 5 minutes in SDS sample loading buffer.\nThe next day membranes were washed in TBST and incubated with horse radish peroxidase (HRP)-conjugated antibodies for 1 h at room temperature with agitation. Following TBST washes, proteins were visualised using Amersham™ ECL™ Prime kit (GE Biosciences) and imaged using the Bio-rad ChemicDoc. Primary antibodies used for western blotting; GAPDH (Abcam cat #ab9485), Phospho-Ub Ser 65 (Sigma-Aldrich cat #ABS1513-1), LC3B (Cell Signaling cat #3868S). Secondary antibodies used for western blotting; anti-rabbit HRP (Agilent Dako cat #P0399), anti-mouse HRP (Agilent Dako cat #P0260).\n(§4) To explore this, we first treated parkin-transfected HeLa cells for 24 h with 50 μM kinetin, kinetin riboside or kinetin riboside ProTide, a monophosphate prodrug of kinetin riboside."}, "[2]": {"test_system": "ubiquitin Ser65 phosphorylation", "assay": "Ubiquitin Ser65 phosphorylation in astrocytes with or without valinomycin", "assay_type": "cell-based", "details": "for ubiquitin Ser65 phosphorylation after pre-treatment followed by valinomycin, compared to valinomycin alone: 50 μM 24 h, 50 nM valinomycin for 5 h; for ubiquitin Ser65 phosphorylation, compound alone: 50 μM, 24 h", "description": "Briefly, astrocytes were treated with 50 μM of the nucleobase kinetin, nucleosides 9a and 9c or DMSO for 24 h and 5 h prior to lysis, the samples were treated with 50 nM valinomycin, a mitochondrial uncoupler."}, "PINK1 [3]": {"molecular_target": "T1, PINK1 (Homo sapiens, UniProt Q9BXM7)", "T1 construct": "HeLa cells, which express PINK1 endogenously; endogenous in cells; host or cells: HeLa cells transiently transfected with parkin", "T1 sequence (Q9BXM7 78-581)": "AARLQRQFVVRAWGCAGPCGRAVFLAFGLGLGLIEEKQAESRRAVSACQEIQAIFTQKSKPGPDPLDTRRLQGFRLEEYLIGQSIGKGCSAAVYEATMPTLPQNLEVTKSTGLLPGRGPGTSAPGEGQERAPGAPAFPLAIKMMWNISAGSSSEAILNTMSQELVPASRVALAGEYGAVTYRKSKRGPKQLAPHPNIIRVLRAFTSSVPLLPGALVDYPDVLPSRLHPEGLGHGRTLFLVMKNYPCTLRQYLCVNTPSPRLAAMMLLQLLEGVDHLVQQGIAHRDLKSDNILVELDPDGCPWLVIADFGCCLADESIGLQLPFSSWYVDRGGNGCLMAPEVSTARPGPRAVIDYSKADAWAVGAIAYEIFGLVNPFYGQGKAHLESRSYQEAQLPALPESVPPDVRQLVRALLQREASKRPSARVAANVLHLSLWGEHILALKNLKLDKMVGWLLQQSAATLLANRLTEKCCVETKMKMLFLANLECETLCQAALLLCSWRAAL", "details": "in presence of the de-polarizing agent CCCP; cited from earlier work"}, "Ub Ser65 phosphorylation [4]": {"test_system": "Ub Ser65 phosphorylation", "assay": "Immunofluorescence for Ub Ser65 phosphorylation in YFP-parkin transfected HeLa cells", "assay_type": "cell-based", "description": "(§5) Cells were seeded on PerkinElmer PhenoPlate 96-well plates, followed by treatment with compounds. Cells were fixed in chilled 4% PFA for 10 min followed by washes in PBS. […] Following PBS washes, cells were blocked using blocking buffer (PBS, 5% BSA, 0.1% Tween20) for 1 h at room temperature. Primary antibodies were diluted in blocking buffer and added to cells to be incubated overnight at 4° C. Cells were subsequently washed with PBS-T and the appropriate secondary antibodies (diluted in blocking buffer) were added for 2 h at room temperature in darkness. 10 μg/ml of Hoechst 33258 stain was added with secondary antibodies when required. Cells were again washed with PBS-T followed by addition of PBS with 0.02% sodium azide. Cells were then stored at 4° C. until ready for imaging. Primary antibodies used for immunofluorescence are as follows: Phospho-Ub Ser 65 (Sigma-Aldrich cat #ABS1513-1), TOM20 (Santa-Cruz cat #sc-17764). Secondary antibodies and stains used in immunofluorescence; Anti-IgG2a Alexa Fluor™ 546 (ThermoFisher cat #A21133) Anti-rabbit Alexa Fluor™ 647 (ThermoFisher cat #A21244), Hoechst 33258 stain (Sigma-Aldrich cat #B2883).\n(§6) Confocal microscopy was performed using a Zeiss LSM800 w/Airyscan fluorescent microscope equipped with lasers emitting at 405 nm, 488 nm, 561 nm and 640 nm. All images were captured using a 40x oil immersion objective lens and processed using Zeiss ZEN software. Images were analysed and quantified using Columbus (PerkinElmer) and TIBCO Spotfire software.\n(§7) First, HeLa cells transfected with YFP-parkin were either left untreated or treated with 50 μM kinetin riboside, nucleosides 9a and 9c for 24 h."}, "[5]": {"test_system": "HeLa cells transfected with YFP-parkin", "assay": "Immunofluorescence for YFP-parkin localisation and TOM20 (mitochondrial fragmentation)", "assay_type": "cell-based", "description": "as §5, §6, §7"}, "PINK1 [6]": {"molecular_target": "T1, PINK1", "assay": "PINK1 activation in cells judged by parkin Ser65 phosphorylation (parkin-transfected HeLa cells)", "assay_type": "cell-based", "details": "50 μM, 1 h", "description": "as §1, §2, §3"}, "PINK1 KO MEFs": {"test_system": "PINK1 KO MEFs", "assay": "MitoQC mitophagy assay, PINK1 knock-out MEF", "assay_type": "cell-based", "details": "20 μM CCCP, 24 h", "source_text": "(§8) With the inhibition of ubiquitin phosphorylation and parkin localisation to the mitochondria by kinetin riboside and the nucleoside analogue 9c, we next asked whether these compounds still induce mitophagy in a PINK1 dependent manner. To explore this, we employed the established MitoQC assay for measuring mitophagy in cells^11,12."}, "[7]": {"test_system": "immortalised MEF expressing PINK1 wild-type (WT)", "assay": "MitoQC mitophagy assay, MEF expressing PINK1 wild-type", "assay_type": "cell-based", "details": "20 μM CCCP, 24 h", "source_text": "as §8"}, "[8]": {"test_system": "HeLa cells transfected with YFP-parkin", "assay": "TMRM fluorescence (mitochondrial membrane potential)", "assay_type": "cell-based", "description": "For assessing tetramethylrhodamine methyl ester perchlorate (TMRM) fluorescence, cell media was removed and replaced with cell media consisting of 5 nM TMRM (ThermoFisher) and 10 μg/ml Hoechst 33258 stain for 30 mins in the dark at 37° C. to allow incorporation of TMRM into mitochondria. Following PBS washes, FluoroBrite DMEM (Gibco) media was added to cells, followed by subsequent imaging using a Zeiss LSM800 microscope at 37° C. with 5% CO2."}, "OPA1": {"test_system": "OPA1", "assay": "OPA1 cleavage immunoblot (mitochondrial membrane depolarization) in parkin-transfected HeLa cells", "assay_type": "cell-based", "details": "10 μM CCCP 3 h", "description": "as §1, §2, §3, §4"}, "[9]": {"details": "50 μM, 24 h, no niclosamide or CCCP"}}, "note": "“Also recorded” adds a separate entry of the source. Like-named read-outs stand apart in the source and are kept apart here."}
{"compound": "c1coc(CNc2ncnc3[nH]cnc23)c1", "note": "[kinetin, reference compound]", "values": [{"measurement": "inhibition of CCCP-induced phosphorylation of ubiquitin by pre-treatment", "setting": "Ub Ser65 phosphorylation [1]; parkin-transfected HeLa cells, 50 μM 24 h, then 10 μM CCCP 3 h", "result": "did not"}, {"measurement": "phosphorylation of ubiquitin (Ub Ser65), compound alone", "setting": "Ub Ser65 phosphorylation [1]; parkin-transfected HeLa cells, 50 μM, 24 h, no CCCP", "result": "did not lead to any notable phosphorylation of ubiquitin"}, {"measurement": "ubiquitin Ser65 phosphorylation after pre-treatment followed by valinomycin, compared to valinomycin alone", "setting": "[2]", "result": "significant suppression of ubiquitin Ser65 phosphorylation"}, {"measurement": "ubiquitin Ser65 phosphorylation, compound alone", "setting": "[2]", "result": "increased phosphorylation"}, {"measurement": "PINK1 activation in cells exposed to CCCP", "setting": "PINK1 [3]", "result": "enhanced PINK1 activation"}]}
{"compound": "CNc1ncnc2c1ncn2[C@@H]1O[C@H](CO)[C@@H](O)[C@H]1O", "note": "[9a, (2R,3S,4R,5R)-2-(hydroxymethyl)-5-(6-(methylamino)-9H-purin-9-yl)tetrahydrofuran-3,4-diol]", "values": [{"measurement": "ubiquitin Ser65 phosphorylation after pre-treatment followed by valinomycin, compared to valinomycin alone", "setting": "[2]", "result": "significant suppression of ubiquitin Ser65 phosphorylation"}, {"measurement": "ubiquitin Ser65 phosphorylation, compound alone", "setting": "[2]", "result": "increased phosphorylation"}, {"measurement": "ubiquitin Ser65 phosphorylation after pre-treatment followed by CCCP, compared to CCCP alone", "setting": "Ub Ser65 phosphorylation [4]; 50 μM 24 h, then 10 μM CCCP, immunofluorescence", "result": "did not have a significant impact"}, {"measurement": "impact on ubiquitin phosphorylation, compound alone", "setting": "Ub Ser65 phosphorylation [4]; 50 μM, 24 h, no niclosamide or CCCP, immunofluorescence", "result": "did not have any impact"}, {"measurement": "parkin localisation to the mitochondria after pre-treatment followed by CCCP, compared to CCCP alone", "setting": "[5]; 50 μM 24 h, then 10 μM CCCP", "result": "did not have a significant impact"}, {"measurement": "impact on mitochondrial fragmentation (TOM20), compound alone", "setting": "[5]; [9]", "result": "did not have any impact"}, {"measurement": "impact on parkin localisation, compound alone", "setting": "[5]; [9]", "result": "did not have any impact"}]}
{"compound": "CC(C)(C)CNc1ncnc2c1ncn2[C@@H]1O[C@H](CO)[C@@H](O)[C@H]1O", "note": "[9f, (2R3S,4R,5R)-2-(hydroxymethyl)-5-(6-(neopentylamino)-9K-purin-9-yl)tetrahydrofuran-3,4-diol]", "values": [{"measurement": "activation of PINK1 as judged by parkin Ser65 phosphorylation", "setting": "PINK1 [6]", "result": "exhibited pronounced activation of PINK1 apart from compound 9f"}]}
{"compound": "carbonyl cyanide m-chlorophenyl-hydrazine [CCCP, reference compound]", "values": [{"measurement": "mitophagy in PINK1 KO MEFs, CCCP", "setting": "PINK1 KO MEFs", "result": "not in PINK1 KO MEFs"}, {"measurement": "ubiquitin phosphorylation, niclosamide or CCCP only (controls)", "setting": "Ub Ser65 phosphorylation [1]", "result": "induced strong ubiquitin phosphorylation"}, {"measurement": "phosphorylation of Ub at Ser65, niclosamide or CCCP treatment alone (controls)", "setting": "Ub Ser65 phosphorylation [1]; parkin-transfected HeLa cells", "result": "strong phosphorylation of Ub at Ser65"}, {"measurement": "phosphorylation of ubiquitin, niclosamide or CCCP alone", "setting": "Ub Ser65 phosphorylation [4]", "result": "induced significant phosphorylation of ubiquitin; also recorded: induced strong ubiquitin phosphorylation"}, {"measurement": "mitophagy in PINK1 WT MEFs, CCCP", "setting": "[7]", "result": "induced an increase in mitophagy"}, {"measurement": "mitochondrial membrane potential, niclosamide or CCCP", "setting": "[8]", "result": "membrane potential collapse"}, {"measurement": "parkin localisation to the mitochondria, CCCP treatment alone", "setting": "[5]; 10 μM CCCP", "result": "promoted parkin localisation to the mitochondria"}, {"measurement": "OPA1 cleavage (mitochondrial membrane depolarization), niclosamide or CCCP alone", "setting": "OPA1", "result": "led to OPA1 cleavage; also recorded: associated with cleavage of OPA1"}]}
{"compound": "O=C(Nc1ccc([N+](=O)[O-])cc1Cl)c1cc(Cl)ccc1O", "note": "[niclosamide, reference compound]", "values": [{"measurement": "ubiquitin phosphorylation, niclosamide or CCCP only (controls)", "setting": "Ub Ser65 phosphorylation [1]", "result": "induced strong ubiquitin phosphorylation"}, {"measurement": "phosphorylation of Ub at Ser65, niclosamide or CCCP treatment alone (controls)", "setting": "Ub Ser65 phosphorylation [1]; parkin-transfected HeLa cells", "result": "strong phosphorylation of Ub at Ser65"}, {"measurement": "phosphorylation of ubiquitin, niclosamide or CCCP alone", "setting": "Ub Ser65 phosphorylation [4]; YFP-parkin HeLa cells, 10 μM, 1 h, immunofluorescence", "result": "induced significant phosphorylation of ubiquitin"}, {"measurement": "mitochondrial membrane potential, niclosamide or CCCP", "setting": "[8]; 10 μM, data not shown", "result": "membrane potential collapse"}, {"measurement": "OPA1 cleavage (mitochondrial membrane depolarization), niclosamide or CCCP alone", "setting": "OPA1", "result": "led to OPA1 cleavage"}]}
